Source: patent US20060167223A1, “Novel ampiphilic fluorocarbon molecular vectors for biomedical and medical use” (priority 2002, published 2006)

How the values were obtained:
[1] = test system: microvessel growth (chick aortic ring); assay: Vascular growth assay on chick embryos (chick aortic ring assay); format: cell-based
From the text: The ongoing research will make it possible to specify its effectiveness, compared with thalidomide alone, in blocking tumor development.

[2] = Radioactivity in mice carrying B16 melanoma after IV injection of iodine 125-labeled molecule B; format: in vivo; design: Radioactivity measured: unit not given here; conditions: for Radioactivity measured: 10 μCi/animal
[3] = Water-solubility; format: physicochemical
From the text: As has been seen, however, the growth of a cancerous tumor is closely linked to its rate of vascularization and therefore to the phenomenon of angiogenesis that accompanies it. These observations had the scientific community to develop substrates, as has been seen, capable of inhibiting angiogenesis and therefore of blocking, by this means, the development of tumors. It is in fact now commonly accepted that membrane proteins carried by the angiogenic cells, and called integrins, participate actively in the process of proliferation of these cells. More particularly, αVβ3 integrins recognize a specific peptide sequence, the RGD (arginine-glycine-aspartic acid) sequence. The grafting of this unit onto the proposed vector should therefore provide it with an ability to specifically target angiogenic sites and therefore, ultimately, tumor sites. The addition, to this same vector, of an antimitotic agent should allow the selective destruction of the cancerous cells. In this perspective, molecule B was initially prepared to verify the innocuousness of the vector and to determine its specificity. In order to give the targeting agent a greater degree of freedom, said targeting agent was grafted onto the central lysine by means of a […] amino acid, serine. The molecule is water-soluble and is amphiphilic in nature. [drawing 11]

[4] = test system: B16 melanoma cells; assay: Toxicity / cytotoxicity on B16 melanoma cells; format: cell-based
Experimental: The cytotoxicity of this molecule was tested on B16 melanoma cells; no toxicity could be measured up to concentrations of greater than 100 μM.

[5] = test system: fibroblasts exhibiting the NARP mutation; format: cell-based
From the text: The aim pursued here was to refine and to simplify the structure of these substrates while at the same time conserving their biological activity in order to develop a synthetic process that can be readily adapted to the industrial phase.

[6] = Radioactivity in organs of mice carrying B16 melanomas after IP injection of molecule A; format: in vivo; design: Radioactivity measured: unit not given here; conditions: for Radioactivity measured: 10 μCi/animal
[7] = test system: fibroblasts; assay: Toxicity on cell cultures of fibroblasts; format: cell-based

With O=C1CCC(N2C(=O)c3ccccc3C2=O)C(=O)N1 (stereo not drawn) [thalidomide, reference compound] the Inhibiting microvessel growth ([1]; at such concentrations (20 μM, 200 μM)) was “ineffective”.
In the case of COC(=O)C(CCCCNC(=O)C(Cc1ccc(O)cc1)NC(=O)C(C)(C)C(C)(C)C(F)(F)C(F)(F)C(F)(F)C(F)(F)C(F)(F)C(F)(F)C(F)(F)C(F)(F)F)NCC(CO)NC(=O)C(CC(=O)O)NC(=O)CNC(=O)C(N)CCCNC(=N)N (stereo not drawn) [molecule B], the Radioactivity measured ([2]; Blood, 15 min after IV injection) is reported as 5.8 ± 0.8, the Radioactivity measured ([2]; Blood, 30 min after IV injection) is reported as 4.5 ± 0.8 and the Radioactivity measured ([2]; Blood, 1 h after IV injection) is reported as 3.6 ± 0.7. For the same compound, the Radioactivity measured ([2]; Kidney, 15 min after IV injection) was 8.9 ± 1.6, the Radioactivity measured ([2]; Kidney, 30 min after IV injection) was 5.9 ± 0.6 and the Radioactivity measured ([2]; Kidney, 1 h after IV injection) was 3.5 ± 0.6. It also gave a Radioactivity measured ([2]; Liver, 15 min after IV injection) of 4.8 ± 0.8, a Radioactivity measured ([2]; Liver, 30 min after IV injection) of 2.2 ± 0.6 and a Radioactivity measured ([2]; Liver, 1 h after IV injection) of 2.4 ± 0.7. For the same compound, the Radioactivity measured ([2]; Thyroid, 15 min after IV injection) was 5.9 ± 1.2, the Radioactivity measured ([2]; Thyroid, 30 min after IV injection) was 10.2 ± 2.5 and the Radioactivity measured ([2]; Thyroid, 1 h after IV injection) was 15.3 ± 5.3. The Radioactivity measured ([2]; Tumor (center), 15 min after IV injection) was 1.7 ± 0.6, the Radioactivity measured ([2]; Tumor (center), 30 min after IV injection) was 1.8 ± 0.3 and the Radioactivity measured ([2]; Tumor (center), 1 h after IV injection) was 2.4 ± 0.4. For the same compound, the Radioactivity measured ([2]; Tumor (stroma), 15 min after IV injection) was 3.9 ± 0.8, the Radioactivity measured ([2]; Tumor (stroma), 30 min after IV injection) was 3.8 ± 0.9 and the Radioactivity measured ([2]; Tumor (stroma), 1 h after IV injection) was 4.2 ± 0.6. The Localisation in vivo ([2]; iodine 125-labeled, injected intravenously, mice carrying a melanoma) was “accumulates in the stroma of the tumor”, the Water-solubility [3] was “water-soluble” and the “Cytotoxicity: concentration up to which no toxicity could be measured” value ([4]; B16 melanoma cells) was “greater than 100 μM”.
In the case of CC(C)(C)/[N+]([O-])=C/c1ccc(C(=O)NCCCCC(NC(=O)C(O)[C@H](O)[C@H](O[C@@H]2OC(CO)[C@H](O)C(O)C2O)C(O)CO)C(=O)NCCC(F)(F)C(F)(F)C(F)(F)C(F)(F)C(F)(F)C(F)(F)C(F)(F)C(F)(F)F)cc1 (stereo partly drawn) [molecule E], the Toxicity [5] is reported as “No toxicity was measured”, the Cell protection ([5]; NARP fibroblasts, in vitro) is reported as “exhibits a capacity for cell protection” and the “Effect on the apoptotic process” value ([5]; NARP fibroblasts, in vitro) is reported as “inhibits the apoptotic process”.
In the case of O=C1CCC(N2C(=O)c3ccc(C(=O)NC(Cc4ccc(O)cc4)C(=O)NCCCCC(NC(=O)C(O)[C@H](O)[C@H](O[C@@H]4OC(CO)[C@H](O)[C@H](O)C4O)C(O)CO)C(=O)NCCC(F)(F)C(F)(F)C(F)(F)C(F)(F)C(F)(F)C(F)(F)C(F)(F)C(F)(F)F)cc3C2=O)C(=O)N1 (stereo partly drawn) [molecule A], the Inhibiting microvessel growth ([1]; at 20 μM) is reported as “effective”, the Inhibiting microvessel growth ([1]; at 200 μM) is reported as “completely blocks the development” and the “Toxicity on cell cultures” value ([4]; B16 melanomas) is reported as “no totally unacceptable toxicity”. For the same compound, the Radioactivity measured ([6]; Blood, 15 min after IP injection) was 5.9 ± 1.2, the Radioactivity measured ([6]; Blood, 1 h after IP injection) was 3.4 ± 0.7 and the Radioactivity measured ([6]; Kidney, 15 min after IP injection) was 4.6 ± 0.5. The Radioactivity measured ([6]; Kidney, 1 h after IP injection) was 4.0 ± 0.9, the Radioactivity measured ([6]; Liver, 15 min after IP injection) was 4.5 ± 1.1 and the Radioactivity measured ([6]; Liver, 1 h after IP injection) was 2.2 ± 0.8. It also gave a Radioactivity measured ([6]; Thyroid, 15 min after IP injection) of 5.6 ± 0.8, a Radioactivity measured ([6]; Thyroid, 1 h after IP injection) of 9.8 ± 1.7 and a Radioactivity measured ([6]; Tumor (center), 15 min after IP injection) of 2.6 ± 0.5. The Radioactivity measured ([6]; Tumor (center), 1 h after IP injection) was 2.7 ± 0.5, the Radioactivity measured ([6]; Tumor (stroma), 15 min after IP injection) was 4.5 ± 0.7 and the Radioactivity measured ([6]; Tumor (stroma), 1 h after IP injection) was 5.4 ± 0.2. For the same compound, the Localisation in vivo ([6]; mice carrying B16 melanomas, IP injection) was “concentrated in the stroma of the tumor” and the “Toxicity on cell cultures” value [7] was “no totally unacceptable toxicity”.
